Experiment: In vitro Li delivery through pig skin in a flow-through Li-AgCl cell (protected Li metal foil donor electrode)
Type: in vitro ADME
Conditions: ICP-MS
Procedure: The glass receptor compartment was similar to one described by Phipps et al. (1988) Solid-state Ionics 28-30: 1778-1783, for ionophoretic drug delivery experiments. The receptor compartment was filled with RPMI-1640 Medium (Sigma Aldrich). The antibiotic gentamicin sulphate was added to the receptor compartment fluid to inhibit bacterial growth.
The prepared skin was stored in RPMI-1640 medium overnight before the start of the experiment. The skin was placed on the receptor chamber and kept in place and stretched out with an O-ring around the neck of the chamber. The visceral surface of the skin was in contact with the receptor fluid.
A square 1 cm×1 cm silver chloride cathode with a capacity of approximately 40 mAh was introduced into the receptor chamber through a port. A multi-channel peristaltic pump was used to create a flow of the RPMI-1640 medium through receptor compartments of several cells. […]
The donor-acceptor chamber assembly was kept in place using a clamp. […] Li content in the fluid samples taken from receptor compartment was analyzed by ICP-MS.
Over the duration of the experiment (27 hrs at a current density of 0.1 mA/cm^2 and 24 hrs at a current density of 0.2 mA/cm^2), receptor fluid samples were taken and analyzed.
The rate of Li delivery into the receptor compartment was calculated as a product of Li concentration and the flow rate of the receptor fluid.

- initial Li content of receptor solution (before current passing): ≤ 6 µg/L
SMILES: [Li+] [Li, lithium]
- Li content in receptor fluid samples (constant current 0.1 mA/cm^2 (27 hrs) and 0.2 mA/cm^2 (24 hrs), 37° C, RPMI-1640 receptor fluid, flow rate 2.1 mL/hr, FIG. 9): gradually increased over time and was significantly larger for the rate of 0.2 mA/cm^2 than for 0.1 mA/cm^2
